From ChEMBL document CHEMBL4346716, “Synthesis of novel andrographolide beckmann rearrangement derivatives and evaluation of their HK2-related anti-inflammatory activities” (Eur J Med Chem, 2019)
Activity calls are given as the source filed them. The calls are words filed in the database; no cut-off is given here.

Experiments:
[1] = target: T1, Hexokinase-2 (Mus musculus) (UniProt O08528); assay: Inhibition of HK2 mouse RAW264.7 cells assessed as reduction in LPS-induced glycolysis at 50 uM followed by LPS-stimulation and measured after 4 hrs by seahorse XFe96 analyser based assay; format: cell-based
T1 sequence (whole entry): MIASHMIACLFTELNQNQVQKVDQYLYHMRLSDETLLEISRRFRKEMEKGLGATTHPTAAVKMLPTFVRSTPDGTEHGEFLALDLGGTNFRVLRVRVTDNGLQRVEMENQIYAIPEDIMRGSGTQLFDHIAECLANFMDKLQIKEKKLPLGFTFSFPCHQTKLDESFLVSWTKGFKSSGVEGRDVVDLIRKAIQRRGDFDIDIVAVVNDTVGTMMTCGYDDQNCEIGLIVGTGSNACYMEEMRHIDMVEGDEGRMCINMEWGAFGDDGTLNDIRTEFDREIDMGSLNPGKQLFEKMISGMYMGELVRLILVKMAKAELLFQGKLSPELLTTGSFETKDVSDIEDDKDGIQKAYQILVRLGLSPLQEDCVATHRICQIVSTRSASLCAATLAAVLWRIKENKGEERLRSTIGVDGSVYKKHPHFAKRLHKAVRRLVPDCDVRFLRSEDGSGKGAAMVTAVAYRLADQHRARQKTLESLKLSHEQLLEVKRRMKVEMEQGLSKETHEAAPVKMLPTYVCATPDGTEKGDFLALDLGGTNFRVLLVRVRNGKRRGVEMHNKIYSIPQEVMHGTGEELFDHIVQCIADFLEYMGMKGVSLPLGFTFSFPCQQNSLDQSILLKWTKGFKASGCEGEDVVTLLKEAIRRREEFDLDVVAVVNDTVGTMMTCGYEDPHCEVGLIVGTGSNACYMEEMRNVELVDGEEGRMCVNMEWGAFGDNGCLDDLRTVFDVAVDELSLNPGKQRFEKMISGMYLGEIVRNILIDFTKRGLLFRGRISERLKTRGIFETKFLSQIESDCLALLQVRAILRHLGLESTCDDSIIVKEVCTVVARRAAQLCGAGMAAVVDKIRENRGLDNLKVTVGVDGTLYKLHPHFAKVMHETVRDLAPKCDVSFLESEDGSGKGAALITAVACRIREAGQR

[2] = target: T2, Hexokinase-2 (Homo sapiens, UniProt P52789); assay: Inhibition of recombinant human HK2 expressed in Escherichia coli BL21(DE3) using glucose as substrate preincubated for 10 mins followed by substrate addition in presence of ATP by G6PDH/NADP coupled assay
T2 sequence (P52789 whole entry): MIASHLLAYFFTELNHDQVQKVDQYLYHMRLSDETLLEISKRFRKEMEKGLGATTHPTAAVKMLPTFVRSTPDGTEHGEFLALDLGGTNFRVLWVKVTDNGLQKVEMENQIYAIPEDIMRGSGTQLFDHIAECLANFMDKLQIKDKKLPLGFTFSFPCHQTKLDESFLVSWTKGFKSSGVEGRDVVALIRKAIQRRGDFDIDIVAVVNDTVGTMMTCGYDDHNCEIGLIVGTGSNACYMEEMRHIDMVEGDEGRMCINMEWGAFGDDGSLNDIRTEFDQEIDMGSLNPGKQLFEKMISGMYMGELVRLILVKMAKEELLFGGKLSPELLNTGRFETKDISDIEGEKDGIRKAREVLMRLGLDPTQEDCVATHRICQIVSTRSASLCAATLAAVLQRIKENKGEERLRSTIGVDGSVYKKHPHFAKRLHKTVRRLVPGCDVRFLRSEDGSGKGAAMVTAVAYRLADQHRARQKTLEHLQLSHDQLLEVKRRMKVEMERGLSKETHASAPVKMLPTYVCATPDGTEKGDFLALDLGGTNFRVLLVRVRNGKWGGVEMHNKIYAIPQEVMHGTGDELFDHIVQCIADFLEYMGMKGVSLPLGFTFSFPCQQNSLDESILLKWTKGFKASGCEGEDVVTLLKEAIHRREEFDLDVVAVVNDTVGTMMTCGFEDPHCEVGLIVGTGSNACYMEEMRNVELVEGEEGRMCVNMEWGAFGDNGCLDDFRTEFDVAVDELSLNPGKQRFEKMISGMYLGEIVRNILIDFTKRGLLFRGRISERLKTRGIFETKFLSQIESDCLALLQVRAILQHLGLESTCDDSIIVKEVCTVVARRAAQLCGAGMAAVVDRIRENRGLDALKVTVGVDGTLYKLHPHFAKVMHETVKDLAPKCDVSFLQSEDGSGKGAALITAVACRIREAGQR

[3] = target: Transcription factor p65 (Mus musculus) (UniProt Q04207); assay: Inhibition of LPS-stimulated NFkappaB p65 nuclear translocation in mouse RAW264.7 cells at 25 uM pretreated for 2 hrs followed by LPS-stimulation and measured after 12 hrs by DAPI staining based fluorescence microscopic analysis; format: cell-based
[4] = tested on: RAW264.7; assay: Antiinflammatory activity in mouse RAW264.7 cells assessed as reduction in LPS-induced IL-1beta production preincubated for 3 hrs followed by LPS addition measured after 24 hrs by ELISA; format: functional, cell-based
[5] = tested on: RAW264.7; assay: Inhibition of LPS-induced NFkappaB protein expression in mouse RAW264.7 cells at 12.5 to 50 uM preincubated for 3 hrs followed by LPS addition and measured after 24 hrs by Western blot analysis; format: functional, cell-based
[6] = tested on: RAW264.7; assay: Antiinflammatory activity in mouse RAW264.7 cells assessed as reduction in LPS-induced IL-6 production preincubated for 3 hrs followed by LPS addition measured after 24 hrs by ELISA; format: functional, cell-based
[7] = tested on: RAW264.7; assay: Cytotoxicity against mouse RAW264.7 cells assessed as reduction in cell viability up to 100 uM after 24 hrs by MTT assay; format: cell-based; settings: raw264.7, 24 h
[8] = tested on: RAW264.7; assay: Antiinflammatory activity against mouse RAW264.7 cells assessed as inhibition of LPS-induced iNOS protein expression preincubated for 3 hrs followed by LPS addition measured after 24 hrs by Western blot analysis; format: functional, cell-based
[9] = target: T3, Hexokinase-2 (Homo sapiens) (UniProt P52789); assay: Non competitive inhibition of recombinant human HK2 expressed in Escherichia coli BL21(DE3) assessed as decrease in Vmax using ATP as substrate by Lineweaver-Burk double reciprocal plot analysis
T3 sequence (whole entry): T2 sequence (P52789 whole entry)

[10] = tested on: RAW264.7; assay: Antiinflammatory activity in mouse RAW264.7 cells assessed as inhibition of LPS-induced NO production preincubated for 3 hrs followed by LPS addition measured after 24 hrs by Griess assay; format: functional, cell-based
[11] = tested on: RAW264.7; assay: Antiinflammatory activity against mouse RAW264.7 cells assessed as inhibition of LPS-induced COX2 protein expression preincubated for 3 hrs followed by LPS addition measured after 24 hrs by Western blot analysis; format: functional, cell-based
[12] = target: T3, Hexokinase-2 (Homo sapiens); assay: Non competitive inhibition of recombinant human HK2 expressed in Escherichia coli BL21(DE3) assessed as decrease in Vmax using glucose as substrate by Lineweaver-Burk double reciprocal plot analysis
[13] = target: T2, Hexokinase-2; assay: Binding affinity to recombinant human HK2 expressed in Escherichia coli BL21(DE3) assessed as dissociation constant measured after 15 mins by microscale thermophoresis assay

Chain of Transcription factor p65 (Mus musculus) (Q04207 whole entry): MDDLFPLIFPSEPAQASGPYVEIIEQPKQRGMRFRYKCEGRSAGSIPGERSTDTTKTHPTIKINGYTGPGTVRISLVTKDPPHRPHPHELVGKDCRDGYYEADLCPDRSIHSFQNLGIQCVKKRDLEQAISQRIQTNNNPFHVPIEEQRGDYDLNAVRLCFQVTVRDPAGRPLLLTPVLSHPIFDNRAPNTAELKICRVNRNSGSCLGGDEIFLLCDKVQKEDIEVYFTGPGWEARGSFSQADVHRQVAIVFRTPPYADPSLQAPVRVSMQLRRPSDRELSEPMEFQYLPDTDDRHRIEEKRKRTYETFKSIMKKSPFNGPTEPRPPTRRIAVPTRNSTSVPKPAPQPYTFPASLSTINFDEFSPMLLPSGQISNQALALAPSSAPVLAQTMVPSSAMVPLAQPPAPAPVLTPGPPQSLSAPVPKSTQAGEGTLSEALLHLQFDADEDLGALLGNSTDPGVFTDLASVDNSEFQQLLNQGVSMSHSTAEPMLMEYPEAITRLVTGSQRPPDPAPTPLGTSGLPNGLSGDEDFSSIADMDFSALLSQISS

inhibition [1]: Active
IC50 [2]: 9.36 µM
inhibition [3]: Active
inhibition [9]: Dose-dependent effect
IC50 [10]: 22.4 µM
inhibition [12]: Dose-dependent effect
Kd [13]: 5.12 µM
SMILES: C=C1CC[C@H]2[C@@](C)(CCC(=O)N[C@@]2(C)COC(=O)CCCC[C@@H]2CCSS2)[C@@H]1/C=C/C1=CCOC1=O
inhibition [4]: Dose-dependent effect
inhibition [5]: Active
inhibition [6]: Dose-dependent effect
Activity [7]: Non-Toxic
inhibition [8]: Dose-dependent effect
inhibition [11]: Dose-dependent effect
